Measured values reported in the supplement of paper PMC10307832.

Tests used:
Test in all cases: relative viability (nuclei count vs DMSO), 5 days (fraction); higher = more cells survive
[1] = compound: O=C(/C=C/c1ccccc1)NC(NC(=S)Nc1cccc2cccnc12)C(Cl)(Cl)Cl [Salubrinal] + CC(C)C[C@H](NC(=O)[C@H](Cc1ccccc1)NC(=O)c1cnccn1)B(O)O [Bortezomib] (partner 0.002 µM)
How it was run: (§1)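 Five library-drug doses in √10 steps were combined with a fixed anchor-drug dose, or a single drug was given alone, by pin tool to lung cancer cell lines in 1536-well plates the day after seeding. Nuclei were stained and counted after 5 days. Relative viability is the nuclei count in treated wells over that in vehicle wells, taken as the median of duplicate plates.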

[2] = compound: Cc1ccc2nc(NCCN)c3ncc(C)n3c2c1 + Cc1nc(NC(=O)N2CCC[C@H]2C(N)=O)sc1-c1ccnc(C(C)(C)C(F)(F)F)c1 [Alpelisib] (partner 2 µM)
How it was run: as §1

[3] = compound: Cc1ccc2nc(NCCN)c3ncc(C)n3c2c1
How it was run: (§2)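 Acceptance criteria were a control CV below 25% and at least one doubling per plate. Lung cancer cell lines in 1536-well plates got five library-drug doses (not always all listed) √10 apart by pinning and were left 5 days with no medium change. Viability divides treated-well nuclei by vehicle-well nuclei and is the median across plates. Nuclei were counted by MetaXpress from 4× Hoechst images.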

[4] = compound: O=C(/C=C/c1ccccc1)NC(NC(=S)Nc1cccc2cccnc12)C(Cl)(Cl)Cl [Salubrinal]
How it was run: as §2

Row | Cell Line | relative viability ([1]; first compound 0.08 µM) | relative viability ([1]; first compound 0.253 µM) | relative viability ([1]; first compound 0.8 µM) | relative viability ([1]; first compound 2.53 µM) | relative viability ([1]; first compound 8 µM) | relative viability ([2]; first compound 0.04 µM) | relative viability ([2]; first compound 0.1265 µM) | relative viability ([2]; first compound 0.4 µM) | relative viability ([2]; first compound 1.265 µM) | relative viability ([2]; first compound 4 µM) | relative viability ([3]; 0.04 µM) | relative viability ([3]; 0.1265 µM) | relative viability ([3]; 0.4 µM) | relative viability ([3]; 1.265 µM) | relative viability ([3]; 4 µM) | relative viability ([4]; 0.08 µM) | relative viability ([4]; 0.253 µM) | relative viability ([4]; 0.8 µM) | relative viability ([4]; 2.53 µM) | relative viability ([4]; 8 µM)
1 | NCI-H1975 | 0.419 | 0.362 | 0.353 | 0.344 | 0.355 | 0.618 | 0.551 | 0.677 | 0.643 | 0.5 | 1 | 0.951 | 0.934 | 0.85 | 0.869 | 0.93 | 0.82 | 1.01 | 1.04 | 0.935
2 | CAL-12T | 0.983 | 0.899 | 1.54 | 0.915 | 0.998 | 1.17 | 1.11 | 1.3 | 1.25 | 0.992 | 0.984 | 0.981 | 0.976 | 1.02 | 0.91 | 1.09 | 0.956 | 1.08 | 1.03 | 0.888
3 | NCI-H2342 |  |  |  |  |  |  |  |  |  |  | 1.19 | 1.08 | 0.989 | 1.08 | 0.841 | 1.04 | 0.88 | 1.07 | 1.03 | 0.858
4 | HCC-44 | 0.799 | 0.817 | 0.997 | 0.922 | 0.86 | 0.776 | 0.787 | 0.786 | 0.711 | 0.769 | 0.976 | 0.945 | 0.963 | 0.972 | 0.914 | 0.952 | 0.97 | 1.07 | 1.02 | 0.973
5 | EKVX | 1.14 | 0.821 | 1.17 | 1.06 | 1.02 | 0.962 | 0.856 | 0.83 | 0.808 | 0.778 | 1.07 | 0.889 | 0.992 | 0.948 | 0.826 | 1.04 | 0.837 | 1.01 | 1.06 | 1.04
6 | NCI-H1648 |  |  |  |  |  |  |  |  |  |  | 0.858 | 0.903 | 0.918 | 0.615 | 0.679 | 0.921 | 0.788 | 0.741 | 0.741 | 0.356
7 | NCI-H1944 |  |  |  |  |  | 0.821 | 0.832 | 0.869 | 0.823 | 0.909 | 0.985 | 0.96 | 0.784 | 1.05 | 0.941 | 1.11 | 1.01 | 0.975 | 0.962 | 1
8 | NCI-H1623 |  |  |  |  |  |  |  |  |  |  | 1.01 | 0.838 | 0.961 | 0.887 | 0.937 | 1.08 | 1.18 | 0.949 | 1.1 | 0.997
9 | ChaGo-K-1 | 1.06 | 0.759 | 1.6 | 1.2 | 1.03 |  |  |  |  |  | 0.958 | 1.01 | 1.05 | 1.01 | 0.874 | 1.05 | 0.912 | 1.15 | 1.01 | 0.922
10 | NCI-H522 |  |  |  |  |  |  |  |  |  |  | 0.882 | 1.04 | 0.909 | 1.03 | 1.02 | 0.947 | 0.819 | 1.1 | 1.02 | 0.921
11 | NCI-H1650 | 0.217 | 0.227 | 0.256 | 0.173 | 0.243 |  |  |  |  |  | 0.983 | 0.903 | 0.865 | 0.915 | 0.772 | 1.1 | 0.795 | 1.03 | 0.893 | 0.912
12 | SW 900 |  |  |  |  |  |  |  |  |  |  | 0.878 | 0.897 | 0.584 | 0.779 | 0.941 | 1.06 | 0.718 | 0.941 | 0.933 | 1.04
13 | NCI-H2170 |  |  |  |  |  | 0.844 | 0.805 | 0.801 | 0.805 | 0.67 | 0.961 | 0.976 | 0.995 | 0.887 | 0.978 | 1.21 | 0.984 | 1.04 | 0.996 | 0.935
14 | NCI-H358 |  |  |  |  |  | 0.844 | 0.835 | 0.902 | 0.952 | 0.626 | 0.988 | 1.01 | 0.933 | 1.07 | 0.919 | 1.06 | 1.02 | 1.09 | 0.908 | 0.795
15 | SK-MES-1 |  |  |  |  |  | 0.904 | 0.848 | 0.846 | 0.866 | 0.848 | 1.05 | 1.01 | 0.984 | 1.01 | 0.992 | 1.14 | 0.997 | 1.09 | 0.988 | 0.945
16 | LK-2 |  |  |  |  |  | 1.07 | 1.08 | 0.935 | 1.05 | 0.864 | 0.961 | 0.928 | 0.881 | 0.979 | 1.03 | 1.08 | 1.01 | 1.27 | 1.16 | 1
17 | NCI-H1395 |  |  |  |  |  | 1.05 | 1.3 | 1.08 | 1.19 | 0.888 | 0.959 | 0.941 | 0.844 | 0.859 | 0.633 | 0.882 | 1.01 | 1.08 | 1.01 | 0.769
18 | A549 |  |  |  |  |  | 0.978 | 0.741 | 0.722 | 1.01 | 0.611 | 1.09 | 0.927 | 1.01 | 0.958 | 0.879 | 1.2 | 0.855 | 1.03 | 0.99 | 0.924
19 | NCI-H1793 |  |  |  |  |  | 0.707 | 0.677 | 0.637 | 0.654 | 0.693 | 0.954 | 0.946 | 0.78 | 0.878 | 0.882 | 1.14 | 1.01 | 0.938 | 1.04 | 0.823
